According to PubChem BioAssay (NCI):
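Following 48 hours of exposure in 96-well plates, responses at five concentrations were used to interpolate endpoints linearly. The concentration for 50% growth inhibition is given as GI50. The concentration for full growth arrest is given as TGI.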

Legend:
Experiment in all cases: inhibition of tumour cell growth, NCI panel, 48 h
[1] = test system: 786-0 renal
[2] = test system: A498 renal
[3] = test system: A549 NSCLC
[4] = test system: BT-549 breast
[5] = test system: CCRF-CEM leukemia
[6] = test system: COLO 205 colon
[7] = test system: DU-145 prostate
[8] = test system: EKVX NSCLC
[9] = test system: HCC-2998 colon
[10] = test system: HCT-116 colon
[11] = test system: HCT-15 colon
[12] = test system: HL-60(TB) leukemia
[13] = test system: HOP-62 NSCLC
[14] = test system: HOP-92 NSCLC
[15] = test system: HS 578T breast
[16] = test system: HT29 colon
[17] = test system: IGROV1 ovarian
[18] = test system: K-562 leukemia
[19] = test system: KM12 colon
[20] = test system: LOX IMVI melanoma
[21] = test system: M14 melanoma
[22] = test system: MALME-3M melanoma
[23] = test system: MCF7 breast
[24] = test system: MDA-MB-231 breast
[25] = test system: MDA-MB-435
[26] = test system: MOLT-4 leukemia
[27] = test system: NCI-H226 lung
[28] = test system: NCI-H23 lung
[29] = test system: NCI-H460 lung
[30] = test system: NCI-H522 lung
[31] = test system: NCI/ADR-RES ovarian
[32] = test system: OVCAR-3 ovarian
[33] = test system: OVCAR-4 ovarian
[34] = test system: OVCAR-5 ovarian
[35] = test system: OVCAR-8 ovarian
[36] = test system: PC-3 prostate
[37] = test system: RPMI-8226 leukemia
[38] = test system: RXF 393 renal
[39] = test system: SF-268 CNS
[40] = test system: SF-295 CNS
[41] = test system: SF-539 CNS
[42] = test system: SK-MEL-2 melanoma
[43] = test system: SK-MEL-28 melanoma
[44] = test system: SK-MEL-5 melanoma
[45] = test system: SK-OV-3 ovarian
[46] = test system: SN12C renal
[47] = test system: SNB-19 CNS
[48] = test system: SNB-75 CNS
[49] = test system: SR leukemia
[50] = test system: SW-620 colon
[51] = test system: T-47D breast
[52] = test system: TK-10 renal
[53] = test system: U251 CNS
[54] = test system: UACC-257 melanoma
[55] = test system: UACC-62 melanoma
[56] = test system: UO-31 renal
[57] = test system: ACHN renal
[58] = test system: CAKI-1 renal

CN(C)CCCSc1ccccc1NC1=C(Cl)C(=O)C(Nc2ccccc2SCCCN(C)C)=C(Cl)C1=O showed a GI50 [1] of 1.72 µM, a TGI [1] of 3.17 µM and a GI50 [2] of 8.36 µM. The TGI [2] was 20.6 µM, the GI50 [3] was 5.43 µM and the TGI [3] was 17 µM. The GI50 [4] was 1.46 µM, the TGI [4] was 2.87 µM and the GI50 [5] was 0.476 µM. For the same compound, the TGI [5] was 4.15 µM, the GI50 [6] was 2.08 µM and the TGI [6] was 4.03 µM. It also gave a GI50 [7] of 1.76 µM, a TGI [7] of 3.23 µM and a GI50 [8] of 1.81 µM. It also gave a TGI [8] of 3.38 µM, a GI50 [9] of 2.11 µM and a TGI [9] of 5.49 µM. For the same compound, the GI50 [10] was 1.52 µM, the TGI [10] was 2.93 µM and the GI50 [11] was 1.69 µM. The TGI [11] was 3.32 µM, the GI50 [12] was 0.69 µM and the TGI [12] was 2.91 µM. The GI50 [13] was 3.59 µM, the TGI [13] was 10.6 µM and the GI50 [14] was 1.48 µM. For the same compound, the TGI [14] was 3.06 µM, the GI50 [15] was 3.14 µM and the TGI [15] was 21.4 µM. The GI50 [16] was 2.13 µM, the TGI [16] was 4.16 µM and the GI50 [17] was 1.39 µM. For the same compound, the TGI [17] was 3.44 µM, the GI50 [18] was 2.08 µM and the TGI [18] was 5.92 µM. The GI50 [19] was 1.89 µM, the TGI [19] was 4.09 µM and the GI50 [20] was 1.39 µM. For the same compound, the TGI [20] was 2.88 µM, the GI50 [21] was 1.74 µM and the TGI [21] was 3.72 µM. It also gave a GI50 [22] of 1.85 µM, a TGI [22] of 3.6 µM and a GI50 [23] of 1.65 µM. The TGI [23] was 3.94 µM, the GI50 [24] was 1.78 µM and the TGI [24] was 3.38 µM. The GI50 [25] was 2.06 µM, the TGI [25] was 4.52 µM and the GI50 [26] was 0.41 µM. It also gave a TGI [26] of 2.68 µM, a GI50 [27] of 2.21 µM and a TGI [27] of 4.32 µM. It also gave a GI50 [28] of 1.75 µM, a TGI [28] of 3.74 µM and a GI50 [29] of 4.49 µM. The TGI [29] was 16.3 µM, the GI50 [30] was 1.07 µM and the TGI [30] was 2.89 µM. The GI50 [31] was 3.21 µM, the TGI [31] was 18.7 µM and the GI50 [32] was 1.53 µM. It also gave a TGI [32] of 2.89 µM, a GI50 [33] of 1.29 µM and a TGI [33] of 2.56 µM. The GI50 [34] was 1.78 µM, the TGI [34] was 3.29 µM and the GI50 [35] was 2.03 µM. It also gave a TGI [35] of 3.99 µM, a GI50 [36] of 1.68 µM and a TGI [36] of 3.84 µM. It also gave a GI50 [37] of 2.35 µM, a TGI [37] of 5.62 µM and a GI50 [38] of 1.92 µM. The TGI [38] was 3.35 µM, the GI50 [39] was 1.93 µM and the TGI [39] was 4.48 µM. It also gave a GI50 [40] of 1.96 µM, a TGI [40] of 3.82 µM and a GI50 [41] of 1.68 µM. For the same compound, the TGI [41] was 3.1 µM, the GI50 [42] was 2.3 µM and the TGI [42] was 5.48 µM. The GI50 [43] was 1.67 µM, the TGI [43] was 3.12 µM and the GI50 [44] was 1.83 µM. The TGI [44] was 3.55 µM, the GI50 [45] was 12.5 µM and the TGI [45] was 25 µM. The GI50 [46] was 1.72 µM, the TGI [46] was 3.18 µM and the GI50 [47] was 3.42 µM. It also gave a TGI [47] of 11.4 µM, a GI50 [48] of 11.1 µM and a TGI [48] of 23.2 µM. The GI50 [49] was 2.15 µM, the TGI [49] was 6.05 µM and the GI50 [50] was 2.17 µM. It also gave a TGI [50] of 4.38 µM, a GI50 [51] of 1.45 µM and a TGI [51] of 3.98 µM. The GI50 [52] was 2.22 µM, the TGI [52] was 3.7 µM and the GI50 [53] was 2.12 µM. It also gave a TGI [53] of 3.69 µM, a GI50 [54] of 1.96 µM and a TGI [54] of 3.45 µM. The GI50 [55] was 1.81 µM, the TGI [55] was 3.51 µM and the GI50 [56] was 1.47 µM. It also gave a TGI [56] of 2.79 µM.
Compound CC(C)[C@@](O)(c1ccc2cc(OC(F)F)c(OC(F)F)cc2c1)c1cn[nH]n1 has a GI50 [1] of 17.2 µM, a TGI [1] of 34.1 µM and a GI50 [3] of 17.6 µM. The TGI [3] was 38.7 µM, the GI50 [57] was 22.6 µM and the TGI [57] was 83.2 µM. It also gave a GI50 [4] of 15.2 µM, a TGI [4] of 29.5 µM and a GI50 [58] of 14.6 µM. The TGI [58] was 38.2 µM, the GI50 [5] was 19.2 µM and the TGI [5] was 55.3 µM. The GI50 [6] was 17.2 µM, the TGI [6] was 35.1 µM and the GI50 [7] was 16.7 µM. It also gave a TGI [7] of 39.2 µM, a GI50 [8] of 11 µM and a TGI [8] of 29.9 µM. For the same compound, the GI50 [9] was 18.2 µM, the TGI [9] was 35.8 µM and the GI50 [10] was 17.2 µM. The TGI [10] was 32 µM, the GI50 [11] was 15.3 µM and the TGI [11] was 37.4 µM. For the same compound, the GI50 [12] was 21.9 µM, the TGI [12] was 66.6 µM and the GI50 [13] was 15.3 µM. The TGI [13] was 30.7 µM, the GI50 [14] was 13.8 µM and the TGI [14] was 30.2 µM. For the same compound, the GI50 [15] was 21.1 µM, the TGI [15] was 73.7 µM and the GI50 [16] was 18.6 µM. The TGI [16] was 41.6 µM, the GI50 [17] was 18.7 µM and the TGI [17] was 63.8 µM. It also gave a GI50 [18] of 19.3 µM, a TGI [18] of 55.3 µM and a GI50 [19] of 17.5 µM. For the same compound, the TGI [19] was 39.2 µM, the GI50 [20] was 15.8 µM and the TGI [20] was 29.2 µM. The GI50 [21] was 16 µM, the TGI [21] was 33.4 µM and the GI50 [22] was 16.8 µM. The TGI [22] was 39.2 µM, the GI50 [23] was 16.6 µM and the TGI [23] was 37.7 µM. It also gave a GI50 [24] of 18.5 µM, a TGI [24] of 39.1 µM and a GI50 [25] of 16.4 µM. It also gave a TGI [25] of 33.3 µM, a GI50 [26] of 21.7 µM and a TGI [26] of 70.7 µM. The GI50 [27] was 22.3 µM, the TGI [27] was 58.2 µM and the GI50 [28] was 14.3 µM. The TGI [28] was 32.2 µM, the GI50 [29] was 18 µM and the TGI [29] was 37.4 µM. For the same compound, the GI50 [30] was 14.3 µM, the TGI [30] was 32.3 µM and the GI50 [31] was 18.5 µM. It also gave a TGI [31] of 50.9 µM, a GI50 [32] of 16.3 µM and a TGI [32] of 37.1 µM. For the same compound, the GI50 [33] was 17.1 µM, the TGI [33] was 86 µM and the GI50 [34] was 21.7 µM. For the same compound, the TGI [34] was 55.6 µM, the GI50 [35] was 21.9 µM and the TGI [35] was 53.6 µM. The GI50 [36] was 14.9 µM, the TGI [36] was 36 µM and the GI50 [37] was 17.3 µM. It also gave a TGI [37] of 61.4 µM, a GI50 [38] of 15.4 µM and a TGI [38] of 29.8 µM. The GI50 [39] was 18.6 µM, the TGI [39] was 49.4 µM and the GI50 [40] was 14.2 µM. It also gave a TGI [40] of 29.7 µM, a GI50 [41] of 16.4 µM and a TGI [41] of 32.3 µM. It also gave a GI50 [42] of 17.4 µM, a TGI [42] of 34.3 µM and a GI50 [43] of 17.1 µM. For the same compound, the TGI [43] was 33.9 µM, the GI50 [44] was 14.4 µM and the TGI [44] was 27.5 µM. It also gave a GI50 [45] of 16.2 µM, a TGI [45] of 38.1 µM and a GI50 [46] of 17.1 µM. It also gave a TGI [46] of 35.2 µM, a GI50 [47] of 20.8 µM and a TGI [47] of 51.2 µM. For the same compound, the GI50 [48] was 15.1 µM, the TGI [48] was 40.4 µM and the GI50 [49] was 17.3 µM. It also gave a TGI [49] of 44.7 µM, a GI50 [50] of 19.7 µM and a TGI [50] of 43.2 µM. For the same compound, the GI50 [51] was 13.4 µM, the TGI [51] was 53.1 µM and the GI50 [52] was 14.9 µM. For the same compound, the TGI [52] was 32.9 µM, the GI50 [53] was 17.4 µM and the TGI [53] was 34.7 µM. The GI50 [54] was 22.8 µM, the TGI [54] was 48.5 µM and the GI50 [55] was 15.1 µM. The TGI [55] was 31 µM, the GI50 [56] was 11.6 µM and the TGI [56] was 26.4 µM.
